Measurements as given in patent publication US7041639B2, “Depsipeptide and congeners thereof for use as immunosuppressants” (XCYTE Therapies, Inc., priority 1999, dated 2006).

Columns and labels:
A1.1 T-cell hybridoma = settings: Wang et al., Oncogene 1998; cited from earlier work
CD4 cells [1] = test: Proliferation by MTT assay, purified CD4 cell cultures; format: cell-based, human; settings: for concentration with no significant effect on proliferation of CD4 cells / lowest concentration that completely inhibits proliferation of CD4 cells: MTT day 3; for lowest concentration that completely inhibits proliferation of CD4 cells: 2 hour incubation prior to stimulation
Description: (§1) Cells isolated from human blood are grown in X-vivo media (Biowhittaker Inc., Walkersville, Md.) and depending on use supplemented with or without 20 U/ml IL-2 (Boehringer Mannheim, Indianapolis, Ind.) and supplemented with 5% human serum (Biowhittaker), 2 mM Glutamine (Life Technologies, Rockville, Md.) and 20 mM HEPES (Life Technology). Jurkat E6-1 cells (ATCC, Manassas, Va.) are grown in RPMI 1640 (Life Technologies) supplemented with 10% fetal bovine serum (FBS) (Biowhittaker), 2 mM glutamine (Life Technologies), […] (Life Technologies), and […] (Life Technologies).
(§2) Buffy coats from healthy human volunteer donors are obtained (American Red Cross, Portland, Oreg.). Peripheral blood mononuclear cells (PBMC) are obtained using Lymphocyte Separation Media (ICN Pharmaceuticals, Costa Mesa, Calif.) according to the manufacturers' instructions.
Peripheral blood lymphocytes (PBL) are obtained from the PBMC fraction by incubation in a culture flask (Costar, Pittsburgh, Pa.) or with uncoated Dynabeads (Dynal, Oslo, Norway), 1×10^8 cells/ml, 2 beads/cell, 2 h at 37° C. Monocytes and macrophages are removed by adherence to the culture flask or phagocytoze the paramagnetic beads that are depleted by magnetic cell separation according to the manufacture's instruction (Dynal). CD4 cells are purified from the PBL fraction by incubation with 10 μg/ml of monoclonal antibodies against CD8 (clone G10-1), CD20 (clone IF5), CD14 (clone F13) and CD16 (Coulter), 10^8 cells/ml, 20 min at 4° C. After washing, cells are depleted twice with sheep anti-mouse Ig-coupled dynabeads (10^6 cells/ml, 6 beads/cell, 20 min at 4° C.) and magnetic cell separation. The purity of CD4 cells are routinely 91–95% as measured by flow cytometry.
Dendritic cells are generated from PBMC adhering to the culture flask (Costar), 10^8 cells/ml, 2 h at 37° C. (without Dynabeads). After extensive washing, adherent cells are cultured for 7 days in media containing 500 U/ml GM-CSF (Boehringer-Mannheim) and 12.5 U/ml IL-4 (Boehringer-Mannheim). The resulting cell population is weakly adherent and expresses surface markers characteristic of dendritic cells (positive for HLA-DR, CD86, CD83, CD11c and negative for CD4). (note:all antibodies obtained from Becton Dickinson, Calif.).
Cells are stimulated by three different methodologies 1) Dynabeads (M-450) covalently coupled to anti-CD3 (OKT-3) and anti-CD28 (9.3) antibodies (3×28 beads) according to the manufacturer's instructions (Dynal), 3 beads/cell, 2) Ionomycin (Calbiochem, La Jolla, Calif.) (100 ng/ml) and phorbol 12-myristate-13-acetate (PMA) (Calbiochem) (10 ng/ml), 3) allogeneic dendritic cells (25,000 dendritic cells/200,000 CD4 cells). All cells are stimulated at a concentration of 1×10^6 cells/ml. Cells are incubated with compounds of structure (I) (e.g., FR901228) (NCI, Bethesda, Md.) for 1 to 2 hours prior to stimulation as outlined above. Proliferation assays are conducted in quadruplicate in 96 well flat-bottom plates. Cells are stimulated at 1×10^6 cells/ml in a final volume of 200 μl. Proliferation is measured by MTT assay (MTT assay kit, Chemicon International Inc., Temecula, Calif.) at day 3 (stimulation method 1 and 2) or at day 6 (stimulation method 3), and results are presented as mean value of quadruplicates. PBL cultures or purified CD4 cell cultures are stimulated with 3×28 beads, ionomycin/PMA or allogenic dendritic cells. […] Further, […] cell survival is not affected by FR901228, as assessed by sub-G1 DNA measurement and integrity of the cell membrane (FIG. 5D). Lack of cytotoxicity of FR901228 is in agreement with results described by Byrd et al, Blood 94(4):1401–1408, 1999; Bates et al., Clinical Pharmacology, Programs and Proceedings of American Society of Clinical Oncology, Abstract 693, 1999; and Chassaing et al., J. Chrmatogr. B 719:169–176, 1998.

CD4 cells [2] = test: Intracellular DNA content by propidium iodide staining (cell cycle); format: cell-based, human; settings: 3×28 beads 24 hours; 10 to 100 ng/ml; FIG. 12
Description: Unstimulated and stimulated (3×28 bead stimulation) CD4 cells were incubated with varying concentrations FR901228 and the intracellular DNA content was measured by staining with propidium iodide (PI) using standard procedures. In brief, the cells were stained with a mixture of 1 μg/ml PI and 0.03% saponin in PBS for about 20 to 30 minutes. […] Accordingly, FR901228 appears to inhibit the cell cycle of activated T-cells prior to entry of S-phase.

[3] = tested on: activated T-cells (peripheral blood lymphocytes); test: Proliferation inhibition assay, CFDA-SE staining; format: cell-based, human; settings: added at time 0 or 24, 72, 120 hours post-stimulation with 3×28 beads; day 6; FIG. 7
Description: Peripheral blood lymphocytes are prepared as described above, stimulated with 3×28 beads and stained with carboxyfluorescein diacetate succinimidyl ester (CFDA-SE) at day 6 post stimulation. Cell stimulation was carried out as indicated above and the cells were washed twice with PBS and resuspended in media and incubated with CFDA-SE (Molecular Probes, OR). After about 10 minutes of staining, the cells are washed with media and FPS and dye incorporation was measured. FR901228 was added at various time points post-stimulation, at time 0 or at 24, 72, and 120 hours post-stimulation. FIG. 7 depicts flow data generated by CFDA-SE staining. The y-axis sets forth mean fluoresence intensity, which relates to the inverse of cell growth.

[4] = tested on: CD154 promoter in Jurkat T-cells; test: GFP reporter under control of the CD154 promoter; format: cell-based; settings: 24 hours 3×28 beads; 0, 10, 50, 100 ng/ml; FIG. 11
Description: In this experiment Jurkat T-cells were stabily transfected with a vector construct (p-EGFP1, Clonetech) wherein the nucleotide sequence encoding green fluorescent protein was operably linked to the CD154 promoter cloned from Jurkat cells. Following selection of cells containing the vector of interest, the cells were subjected to stimulation for 24 hours with 3×28 beads in the presence of varying concentrations (0 to 100 ng/ml) of FR901228. Fluorescence was then detected using flow cytometry.

[5] = tested on: peripheral blood lymphocyte (PBL); test: Proliferation by MTT assay, PBL cultures; format: cell-based, human
Description: as §1, §2
Peripheral blood lymphocytes (PBL) are obtained from the PBMC fraction by incubation in a culture flask (Costar, Pittsburgh, Pa.) or with uncoated Dynabeads (Dynal, Oslo, Norway), 1×10^8 cells/ml, 2 beads/cell, 2 h at 37° C. Monocytes and macrophages are removed by adherence to the culture flask or phagocytoze the paramagnetic beads that are depleted by magnetic cell separation according to the manufacture's instruction (Dynal). […] The purity of CD4 cells are routinely 91–95% as measured by flow cytometry. […]

C/C=C1\NC(=O)[C@H]2CSSCC/C=C/[C@H](CC(=O)N[C@H](C(C)C)C(=O)N2)OC(=O)[C@H](C(C)C)NC1=O [FR901228]
CD3-induced IL-2 production (A1.1 T-cell hybridoma): did not inhibit
concentration with no significant effect on proliferation of CD4 cells (CD4 cells [1]; 3×28 beads): ≤ 1 ng/mL
lowest concentration that completely inhibits proliferation of CD4 cells (CD4 cells [1]; 3×28 beads): 10 ng/mL
T-cell proliferation on addition of IL-2 (CD4 cells [1]; addition of 100 U/ml IL-2): will not restore proliferation
lowest concentration that significantly inhibits proliferation induced by allogenic dendritic cells (CD4 cells [1]; allogenic dendritic cells, MTT day 6): 1 ng/ml
concentration with no significant effect on proliferation of CD4 cells (CD4 cells [1]; ionomycin/PMA): ≤ 1 ng/mL
lowest concentration that completely inhibits proliferation of CD4 cells (CD4 cells [1]; ionomycin/PMA): 10 ng/mL
inhibition of CD4 positive T-cell proliferation (CD4 cells [1]; stimulation by anti-CD3/anti-CD28 beads, FIG. 3): dose dependent inhibition
inhibition of CD4 positive T-cell proliferation (CD4 cells [1]; stimulation with in vitro generated allogenic dendritic cells, FIG. 4): dose dependent inhibition
DNA synthesis in stimulated CD4 cells (CD4 cells [2]): DNA synthesis does not take place
cell growth of activated T-cells (CFDA-SE mean fluorescence intensity) [3]: inhibited
induction of GFP expression under CD154 promoter [4]: only cells having 0 ng/ml of FR901228 showed induction of GFP expression
inhibition of peripheral blood lymphocyte (PBL) proliferation ([5]; stimulation by beads having anti-CD3 and anti-CD28 antibodies, FIG. 1): dose dependent inhibition
inhibition of peripheral blood lymphocyte (PBL) proliferation ([5]; stimulation with Ionomycin/PMA, FIG. 2): dose dependent inhibition
